These are literature values, as cited in patent publication US20170151152A1, “COMBINATION OF N-ACETYL GLUCOSAMINE WITH ABSCISIC ACID AND USES THEREOF” (priority 2015, published 2017).

The data set deals with cell cultures. The settings on record: 1%, 3%, 5% of 30 μL of NAG.

Take `CC(=O)N[C@H]1C(O)O[C@H](CO)[C@@H](O)[C@@H]1O` (stereo partly shown) [NAG, N-acetyl glucosamine]: the “melanin in cell cultures” value was “dose dependent decrease in melanin”.
